Entries after “also recorded” stand apart in the source; their conditions may differ.
Columns and labels:
[1] = system: COL7A1_e73 gene-editing protein pair USN3 (US2L/US2R D467A) D467A in FokI domain of right protein (D84A of SEQ 80; mutant FokI domain is SEQ 83) (synthetic construct); experiment: cell_activity; conditions: T7E1 assay, primary human fibroblasts; nickase pair
[2] = system: COL7A1_e73 gene-editing protein pair US22 (US2L/US2R, wild-type FokI domains) (synthetic construct); experiment: cell_activity; conditions: T7E1 assay, primary human fibroblasts; 9.4% in iPSCs (p667)
[3] = system: COL7A1_e73 gene-editing protein pair USN2 (US2L/US2R D450N) D450N in FokI domain of right protein (D67N of SEQ 80; mutant FokI domain is SEQ 82) (synthetic construct); experiment: cell_activity; conditions: T7E1 assay, primary human fibroblasts; 0.4% in iPSCs; nickase pair, 42.9% relative insertion of dsDNA donor in fibroblasts
[4] = system: COL7A1_e73 gene-editing protein pair USN1 (US2L/US2R D450A) D450A in FokI domain of right protein (D67A of SEQ 80; mutant FokI domain is SEQ 81) (synthetic construct); experiment: cell_activity; conditions: T7E1 assay, primary human fibroblasts; nickase pair, 58.7% relative insertion of 300 bp dsDNA donor vs 72.3% for US22
pJet promoter = experiment: Reactivation of silenced pJet promoter (GFP expression) during iPSC to iMSC differentiation; type: cell-based, human; conditions: 10 μM, 24 hours on day 23 of differentiation, JeT-GFP cells
Excerpt: • 1. Transfect hiPSCs with a chromatin context-sensitive gene editing endonuclease according to some embodiments of the present disclosure, mRNA and single stranded DNA repair templates encoding GFP sequence under JeT (“pJet”) and Ef1a promoters. • 2. Perform gDNA extraction and AAVS1 surveyor PCR to confirm ssDNA repair template integration at AAVS1 locus • 3. Perform single cell sorting to obtain homogeneous cell line started from a single cell • 4. Using Stemdiff™ Mesenchymal Progenitor kit, differentiate iPS cell lines inserted with pJet and Ef1a GFP sequence in their genomes into iMSCs. • 5. Verify robust iMSC differentiation using surface marker expression at the completion of differentiation.
FIG. 16A and FIG. 16B show the tracking of GFP expression under a pJet promoter during iPSC to iMSC differentiation. […] GFP was expressed from day 18 to 30 but was completely silenced on day 33.

Protocol for Control iMSCs: The cytotoxicity of small-molecule IDO1 inhibitors was assessed by flow cytometry after a 48 hour incubation with Control iMSCs. Viability is shown relative to PBS controls.

C[C@@H](NC(=O)c1ccc(F)cc1)c1ccc2c(c1)CCN2C(=O)C1CCOCC1 [IDO1-IN-5]
cytotoxicity (viability relative to PBS controls) (Control iMSCs): mild cytotoxicity

COL7A1 exon 73 target site
activity [1]: 11.1 % NHEJ/MMEJ | activity [2]: 61.9 % NHEJ/MMEJ | activity [3]: 3.1 % NHEJ/MMEJ | activity [4]: 4.4 % NHEJ/MMEJ

NS(=O)(=O)NCCNc1nonc1C(=NO)Nc1ccc(F)c(Br)c1 [Epacadostat]
cytotoxicity (viability relative to PBS controls) (Control iMSCs): no significant difference relative to PBS

CC(/C=C/C(=O)NO)=C\[C@@H](C)C(=O)c1ccc(N(C)C)cc1 [Trichostatin A]
GFP expression post TSA treatment (pJet promoter): temporary increase in GFP expression | GFP expression post TSA treatment (pJet promoter; listed as TSA): noticeable increase of GFP expression; also recorded: successfully demethylated and reactivated the pJet promoter

Reference: patent publication US20260146264A1, “METHODS FOR REPROGRAMMING AND GENE EDITING CELLS” (Factor Bioscience Inc., priority 2023, published 2026)
